# Key:
# [1] = Unblocking of shifted masking coupler in fixed unexposed strips (density at 520 nm); settings: blocked compound
# Method: Each compound was dispersed in an equal weight of 2,4-di-t-pentylphenol and coated in the following format on a poly(ethylene terephthalate) film support (unless otherwise specified, component amounts are given in mg/m^2 with silver halide counted as silver):
# OVERCOAT Gelatin (2691); bis(vinylsulfonyl-
# LAYER: methyl) ether hardener (1.75% of
# EMULSION Gelatin (3767); unsensitized AgBr
# LAYER: emulsion (906); masking coupler
# Unexposed strips of this coated element were soaked 1 minute in a fixing solution to remove silver halide, washed, and then immersed in one of the following processing solutions at temperatures conventionally used for processing in a KODAK C-41 process:
# P-1: pH 10 carbonate buffer
# P-2: pH 10 carbonate buffer with 0.024M hydroxylamine sulfate
# P-3: C-41 color developer with hydroxylamine sulfate omitted
# P-4: C-41 color developer solution containing hydroxylamine sulfate
# [2] = Deblocking of blocked filter dyes in C-41 developer with or without hydroxylamine sulfate at 38° C.; settings: unblocked dye
# Method: FILTER DYE Gelatin (4844); blocked filter dye
# bis(vinylsulfonylmethyl) ether
# Strips of each coating were soaked at 38° C. in C-41 developer or in the same C-41 developer formulation from which hydroxylamine sulfate (HAS) had been omitted. The rate of deblocking of each filter dye was followed by measuring the density at the absorption maximum of the unblocked dye at selected time intervals.
# [3] = Model deblocking (hydrolysis) half-lives of esters with mononucleophile (A+B) or dinucleophile hydroxylamine (A+C), pH 10, 25° C.; assay type: physicochemical; settings: for rate enhancement due to dinucleophile (hydroxylamine) participation, compared with comparison esters E-4 and E-5: pH 10.0, 25° C.; for Ratio (A+B half-life to A+C half-life): rate enhancement due to hydroxylamine
# Method: Model studies were conducted on esters E-1 through E-5 to determine the possible rate enhancement which could be attained by using a dinucleophile rather than a mononucleophile to promote the removal from a phenolic moiety of a blocking group of this invention. Aqueous solutions A, B, and C, each containing 50% by volume of acetonitrile were prepared as follows (a separate solution A for each ester):
# Solution A: 2.5 × 10^-4 M ester (or 2.5 × 10^-5 M
# Solution B: 25% by volume carbonate buffer
# (ionic strength 0.75); 0.05 N KCl
# Solution C: Solution B with added 0.05 M
# Then equal volumes of A and B (or A and C) were mixed at 25° C. to give a pH 10.0 solution and the reaction was followed by spectrophotometric measurements of the phenol (272 nm) or p-nitrophenol (402 nm) produced with time. In each case a reaction half-life (t1/2) was calculated from the equation t1/2 =1n(2)/k, where 1n(2) is the natural logarithm of 2 and k is the pseudo first-order rate constant calculated for the reaction. Smaller half-lives thus indicate more rapid reactions. The A+B combination provides an alkaline solution in which the main reactant is hydroxide ion (a mononucleophile) while in the A+C combination the active reactant is hydroxylamine (a dinucleophile). A ratio of the A+B half-life to the A+C half-life provides a measure of rate enhancement due to participation of hydroxylamine in the deblocking reaction.
λmax (Unblocked) [2],"rate enhancement due to dinucleophile (hydroxylamine) participation, compared with comparison esters E-4 and E-5 [3]",Ratio (A+B half-life to A+C half-life) [3],SMILES,other results
,,,CCC(C)(C)c1ccc(OCCCCNC(=O)c2cc(Oc3ccc(N=Nc4cc(OC(C)C(=O)O)c5ccccc5c4OC(=O)C4(C)CCCCC4=O)cc3)c3ccccc3c2O)c(C(C)(C)CC)c1 (stereo not drawn) [Compound 3],absorption maximum (blocked) [1]: about 375 nm
440 nm,,,CCCCCCCCCCCCOC(=O)c1ccc(N=Nc2ccc(N(CC)C(=O)OCc3ccc(OC(=O)C4(C)CCCCC4=O)c(NS(C)(=O)=O)c3)c(OC)c2)cc1 (stereo not drawn) [Compound 4],
440 nm,,,CCCCCCCCCCCCOC(=O)c1ccc(N=Nc2ccc(N(CC)C(=O)OCc3ccc(OC(=O)C4(C)CCCCC4=O)c(Cl)c3)c(OC)c2)cc1 (stereo not drawn) [Compound 5],
495 nm,,,CCCCCCCCCCCCN(C(=O)OCc1ccc(OC(=O)C2(C)CCCCC2=O)c(NS(C)(=O)=O)c1)c1ccc(N=Nc2ccc([N+](=O)[O-])cc2C(=O)OC)cc1OC (stereo not drawn) [Compound 6],
,twenty to seventy thousand times greater,36 × 10^3,CC(=O)C(C)(C)C(=O)Oc1ccc([N+](=O)[O-])cc1 [Compound E-1],
,twenty to seventy thousand times greater,93 × 10^3,CC(=O)C(C)(C)C(=O)Oc1ccccc1 [Compound E-2],
,twenty to seventy thousand times greater,3.2 × 10^6,CC1(C(=O)Oc2ccccc2)CCCCC1=O (stereo not drawn) [Compound E-3],
,,47,"CC(=O)CCC(=O)Oc1ccccc1 [Compound E-4, reference compound]",
,,166,"CC(=O)CC(C)(C)C(=O)Oc1ccccc1 [Compound E-5, reference compound]",
